# Measurements taken from patent publication US9481743B2, “Polyelectrolyte polymers, their manufacture and use” (priority 2013, dated 2016).
# “And” between values parts separate entries of the source, which are not always exact repeats. Equal entries are not always repeated.
# Legend:
# [1] = Thermal degradation by thermal gravimetric analysis (TGA); type: physicochemical; conditions: 10° C./min, nitrogen
# Method: Nuclear Magnetic Resonance (NMR) spectroscopy was conducted on a Varian INOVA 400 MHz spectrometer (^1H, 400.09 MHz, ^31P{^1H} 161.82 MHz, ^19F, 376.15 MHz). All ^1H spectra were referenced relative to tetramethyl silane (CDCl3; ^1H δH=7.26 ppm and CO(CD3)2; ^1H δH=2.04). The chemical shifts for ^31P{H} NMR spectroscopy were referenced using an external standard (85% H3PO4; δP=0). The chemical shifts for ^19F{^1H} NMR spectroscopy were also referenced using an external standard (trifluorotoluene; δF=−63.9 ppm). Infrared spectra were recorded using a Bruker Tensor 27 spectrometer using attenuated total reflectance mode (ATR) using a ZnSe crystal. […] Water contact angles (WCA) were measured using a Kruss DSA100 Drop Shape Analyzer and analyzed using Drop Shape Analysis. Thermal degradation was determined using Thermal Gravimetric Analysis (TGA) on a Q600 SDT TA instrument. […] Glass transition temperatures were determined using Differential Scanning calorimetry (DSC) on a DSC Q20 TA instrument. […] Melting points of all HFPS were determined using a Gallenkamp Variable Heater in air. Mass spectrometry was recorded in both positive and negative ion modes using electrospray ionization (ESI) Micromass LCT spectrometer. […] The positive or negative secondary ions were extracted from the sample surface, mass separated and detected via a reflectron-type time-of-flight analyser. […]
# [2] = Solubility/miscibility tests; type: physicochemical
# Method: Approximately 5-10 mg of compound was added to a test tube followed by the addition of 1.5 mL of solvent followed by 5 seconds of gentle stirring. If dissolution was not observed immediately, the mixture was further stirred and sonicated for 30 seconds. Material was deemed soluble if the resulting solution was free of particulate and haze, determined by visual inspection. […] If solutions remained hazy, they were referred to as emulsion mixtures.
# [3] = Slow heating within a mass spectrometer, perfluoro-tert-butanol fragment m/z 197 monitored; type: physicochemical; conditions: heated slowly within a mass spectrometer
# Description: Compound [3b]Cl was heated slowly within a mass spectrometer and the fragments of perfluoro-tert-butanol was monitored.
# [4] = of the protonated form; cited from earlier work
# [5] = Density of surface phosphonium cations by UV-vis (fluorescein dye); type: physicochemical
# Method: Characterization by FTIR-ATR spectroscopy confirmed the conversion of acrylate functionality post polymerization. Percent cure was determined using a literature procedure. The intensity of the acrylate vibration at 810 cm^−1 was compared to the C═O vibration at 1750 cm^−1 both before and after irradiation. […] The density of surface phosphonium cations was determined by UV-vis spectroscopy as described in a literature procedure.
# Characterization by FTIR-ATR spectroscopy confirmed the conversion of acrylate functionality post polymerization. […] The density of surface phosphonium cations was determined by UV-vis spectroscopy as described in a literature procedure^23. […] This assumes a 1:1 ratio of positive and negative charge on the surface.
# Before deposition of [Au25L18]^−, the number of accessible charges on the PPF was quantified. A known protocol utilizing fluorescein dye was employed to determine the value for the above system and to relate this quantity back to the percentage of phosphonium monomers that were included in the original formulation.^23 This procedure is commonly used as a characterization technique for films containing surface-bound quaternary salts. […] At 30 wt %, a dramatic increase in the number of quaternary charges was observed (1.5×10^15 cations/cm^2). Increasing the salt content to 37.5 and 47.5 wt % yielded surfaces with 8.2×10^15 and 1.4×10^16 cations/cm^2, respectively. […] Use of low melting phosphonium salts permits formation of a formulation having low viscosity despite the high ion content, allowing for ease of handling and deposition. Use of high melting point organic salts in a similar fashion generates formulations with relatively high viscosities or significant solubility issues, which manifest themselves in poor films. Advantages of the phosphonium-based acrylate monomer in the fabrication of the charged surfaces can thus be seen.
# [6] = system: Escherichia coli; assay: Antibacterial drop-test of UV-cured films; type: cell-based
# Method: (§1) A desired amount of 2-hydrox-2-methy-1-phenyl-propanone (5 wt %), diacrylate crosslinker (EB 130, a cyclic aliphatic diacrylate) and the acrylate-appended phosphonium salt were weighed and combined in screw top vials. The mixture was then insonated at 45° C. for 20 min until the solutions were free of particulate and haze. After cooling to room temperature, the solutions were cast on polyester films and irradiated with UV light three times. Leached films were treated with H2O (Milli-Q) in a wrist action shaker for 4 hours, followed by washing with H2O (2×10 mL) and air drying. Both leached and unleached films were subjected to the antibacterial test (below).
# (§2) The antibacterial activities of the charged surfaces against Gram-negative bacteria Escherichia coli […] were studied using the antibacterial drop-test. E. coli precultured in 15 mL of nutrient broth (Difco™ BD) at 37° C. for 24 h, was washed by centrifuging at 4000 rpm for 10 min. After removing the supernatant, the cells were washed with phosphate buffered saline (PBS) twice and re-suspended and diluted to approximately 10^6 colony forming units (CFU)/mL in PBS solution. The samples were placed in sterilized Petri dishes. 100 μL of PBS solution with bacteria was added dropwise onto sterilized surfaces until completely covered. The petri dishes were sealed and placed in an incubator at 37° C. with the humidity 46%. After 4 hr, the bacteria were washed from the surface of the sample by using 10 mL PBS in the sterilized Petri dish. From this solution, 100 μL was spread onto solid plate count agar (Difco™ BD). After incubation for 24 h at 37° C., the number of surviving bacterial colonies on the Petri dishes were counted. The results after multiplication with the dilution factor were expressed as CFU per mL. The above experiments were carried out in triplicate for each sample. The percentage of killed bacteria was calculated as [(CFU of initial bacterial suspension−CFUs following surface contact)/CFU of initial bacterial suspension]×100.
# [7] = system: S. Aureus; assay: Antibacterial drop-test of UV-cured films; type: cell-based
# Method: as §1, §2
smiles,measurement,setting,value
C=Cc1ccc(C[P+](CCCOC(C(F)(F)F)(C(F)(F)F)C(F)(F)F)(CCCOC(C(F)(F)F)(C(F)(F)F)C(F)(F)F)CCCOC(C(F)(F)F)(C(F)(F)F)C(F)(F)F)cc1.[Cl-] [[3b]Cl],Decomposition Point,[1],198 °C and 197* ° C.
same,Solubility (in words),[2]; chloroform,soluble
same,Solubility (in words),[2]; dichloromethane,soluble
same,Solubility (in words),[2]; most solvents including diethyl ether,high solubility
same,Time at which signal at m/z=197 was at a maximum,[3],889 s
same,Time until fragment at m/z=197 was observed,[3],532 s
OC(C(F)(F)F)(C(F)(F)F)C(F)(F)F [perfluoro-tert-butoxide],pKa,[4],5.2
"C=CC(=O)OCCC[P+](CCCC)(CCCC)CCCC.[Br-] [[4]Br, (3-(acryloyloxy)propyl)tributylphosphonium bromide]",Charge/Unit area,[5]; 25% [4]Br film,0 ×10^x Y^+/cm^2
same,Charge/Unit area,[5]; 30% [4]Br film,1.47 × 10^15 ×10^x Y^+/cm^2
same,Charge/Unit area,[5]; 37.5% [4]Br film,8.18 × 10^15 ×10^x Y^+/cm^2
same,Charge/Unit area,[5]; 47.5% [4]Br film,1.42 × 10^16 ×10^x Y^+/cm^2
same,% E. coli killed (unleached),[6]; 25% [4]Br in EB 130 film,No
same,% E. coli killed (unleached),[6]; 30% [4]Br in EB 130 film,30 ± 5%
same,% E. coli killed (unleached),[6]; 37.5% [4]Br in EB 130 film,46 ± 7%
same,% E. coli killed (unleached),[6]; 47.5% [4]Br in EB 130 film,82 ± 9%
same,% S. Aureus killed (unleached),[7]; 30% [4]Br in EB 130 film,100 ± 2%
same,% S. Aureus killed (leached),"[7]; 47.5% [4]Br in EB 130 film, leached",100 ± 2%
same,% S. Aureus killed (unleached),[7]; 47.5% [4]Br in EB 130 film,100 ± 2%
